These results are taken from patent publication EP0350742A1, “6-Merkaptopurines derivatives, their preparation and their use against retrovirus infections” (HOECHST AKTIENGESELLSCHAFT, priority 1988, dated 1990).

Series [1] concerns Friend-Leukämie-Virus. Description: Friend leukaemia virus (FLV) infection in the mouse, i.p. application (Tabelle I). The series is classed as in vivo, Maus. Particulars: for rel. Milzgewicht: NMRI mice, treatment over 10 days starting 48 h after infection, spleen weighed day 14; for n* Anzahl überlebende Mäuse: groups of 10 mice. From the text: (§1) Blockierung der Reverse Transkriptase-(RT)-Aktivität untersucht wird, erscheint die Wahl eines solchen Ersatzmodelles gerechtfertigt. Im vorliegenden Fall wurde die Infektion der Maus mit dem Friend-Leukämie-Virus gewählt. Dazu wurden normale Labormäuse (NMRI = Naval Medical Research Institute) durch intravenöse Injektion mit Friend-Virus enthaltendem Mäuseserum infiziert. Bei den unbehandelten Kontrolltieren entwickelte sich als Symptom der Infektion innerhalb von 2 Wochen eine deutliche Vergrößerung von Milz und Leber. Die Behandlung erfolgte über 10 Tage, beginnend 48 Stunden nach der Infektion. Am 14. Versuchstag wurden die Tiere durch Luxation der Halswirbel getötet und geöffnet. Die Milz wurde entnommen und gewogen. Als Meßparameter der therapeutischen Wirksamkeit wurde das Milzgewicht der behandelten Tiere mit dem der unbehandelten Infektionskontrolle in Relation gesetzt.
Während bei uninfizierten ausgewachsenen Labormäusen (20 - 24 g Körpergewicht) die Milz etwa 1 % des Körpergewichtes oder weniger wog, erreichte bei infizierten Tieren die Milz am Ende des Versuchs etwa 10 % des Körpergewichts.
Tabelle I zeigt die Ergebnisse der Wirksamkeitstests bei der Friend-Leukämie-Virusinfektion in der Maus bei intraperitonealer Verabreichung der erfindungsgemäßen Verbindungen. Als Kontrolle diente eine Gruppe von Mäusen, die unbehandelt blieben.
Zum Vergleich wurde eine weitere Gruppe von Mäusen mit Suramin behandelt. Tabelle I verdeutlicht, daß die erfindungsgemäßen Verbindungen besser wirken als Suramin, bei vergleichbarer oder geringerer Beeinträchtigung des Hämaglobingehaltes des Blutes. Bei Verabreichung der erfindungsgemäßen Verbindungen überlebten alle Mäuse die Behandlung, wohingegen bei der Verabreichung von Suramin 3 von 10 Mäusen starben. Weiterhin war der Behandlungserfolg, erkennbar an der Verringerung der Milzschwellung, bei Verabreichung aller getesteten Verbindungen größer als bei der Verabreichung von Suramin.

The subject of series [2] is Friend-Leukämie-Virus. The series can be described thus: Friend leukaemia virus (FLV) infection in the mouse, oral application via drinking water (Tabelle II). The series is classed as in vivo, Maus. The note with it: for n* Anzahl überlebende Mäuse / Hg: oral; for Hg: haemoglobin content of blood.
Description: as §1, with “Bei den unbehandelten Kontrolltieren entwickelte sich als Symptom der Infektion innerhalb von 2 Wochen eine deutliche Vergrößerung von Milz und Leber.” left out

Series [3] is described as follows: Qualitative solubility noted in the preparation examples. The series is classed as physicochemical.
Setting [4] is: 0.05 mg/ml in drinking water, oral (10 x 0.17-0.18 mg/Maus).
Setting [5] is: 0.10 mg/ml in drinking water, oral (10 x 0.33-0.36 mg/Maus).
[6] abbreviates: 0.50 mg/ml in drinking water, oral (10 x 1.67-1.77 mg/Maus).

Each structure is given as a SMILES string.

Turning to `Cc1ccc(C(=O)Nc2ccc(S(=O)(=O)O)c3cc(S(=O)(=O)O)cc(S(=O)(=O)O)c23)cc1NC(=O)c1cccc(NC(=O)Nc2cccc(C(=O)Nc3cc(C(=O)Nc4ccc(S(=O)(=O)O)c5cc(S(=O)(=O)O)cc(S(=O)(=O)O)c45)ccc3C)c2)c1` [Suramin, reference compound], the “rel. Milzgewicht” value in the series on Friend-Leukämie-Virus [1] (10 x 1.0 mg/Maus i.p.) is 4.54 ± 1.86 % Körpergewicht; in the series with Friend-Leukämie-Virus [2] (10 x 1.00 mg/Maus i.p., comparison group within the Tabelle II experiment) it was 4.50 ± 2.22 % Körpergwicht. Also, the Mäuse starben in the series with Friend-Leukämie-Virus [1] (in vivo, ip) is given as 3.

Consider `c1cncc(CSc2ncnc3[nH]cnc23)c1` [Präparat 2, 6-(3-Pyridylmethyl)-mercaptopurin], for which the “rel. Milzgewicht” value with Friend-Leukämie-Virus [1] (10 x 0.1 mg/Maus i.p.) stood at 5.46 ± 3.32 % Körpergewicht; in the series on Friend-Leukämie-Virus [1] (10 x 1.0 mg/Maus i.p.), 1.84 ± 0.82 % Körpergewicht; in the series with Friend-Leukämie-Virus [2] (setting [4]) it was 5.76 ± 2.72 % Körpergewicht; with Friend-Leukämie-Virus [2] (setting [5]), 1.46 ± 1.00 % Körpergewicht; in the series on Friend-Leukämie-Virus [2] (setting [6]), 0.90 ±1.12 % Körpergewicht.

For the compound `Cc1cn([C@H]2C[C@H](N=[N+]=[N-])[C@@H](CO)O2)c(=O)[nH]c1=O` [AZT, Azidothymidin, reference compound], in the series on Friend-Leukämie-Virus [2] (0.05 mg/ml in drinking water), the “n* Anzahl überlebende Mäuse” value came out at 10 and the Hg stood at 14.1 g/%. In the series on Friend-Leukämie-Virus [2] (0.10 mg/ml in drinking water), the “n* Anzahl überlebende Mäuse” value stood at 10 and the Hg is on record as 12.7 g/%.

`c1cc(CSc2ncnc3[nH]cnc23)ccn1` [Präparat 1, 6-(4-pyridylmethyl)-mercaptopurin]: the “Löslichkeit in Wasser” value in series [3] (free base) was “unlöslich”. Moreover, in series [3] (free base), the “Löslichkeit in allen säurehaltigen Flüssigkeiten” value is on record as “gut löslich”. The “rel. Milzgewicht” value in the series on Friend-Leukämie-Virus [1] (10 x 0.1 mg/Maus i.p.) is listed as 5.23 ± 2.69 % Körpergewicht; in the series with Friend-Leukämie-Virus [1] (10 x 1.0 mg/Maus i.p.) it was 2.08 ± 0.44 % Körpergewicht; with Friend-Leukämie-Virus [2] (setting [4]) it was 7.01 ± 2.99 % Körpergewicht; with Friend-Leukämie-Virus [2] (setting [5]) it was 4.80 ± 2.74 % Körpergewicht; in the series on Friend-Leukämie-Virus [2] (setting [6]) it was 1.66 ± 1.25 % Körpergewicht. The “n* Anzahl überlebende Mäuse” value in the series with Friend-Leukämie-Virus [1] (10 x 0.1 mg/Maus i.p.), with Friend-Leukämie-Virus [1] (10 x 1.0 mg/Maus i.p.), in the series on Friend-Leukämie-Virus [2] (0.05 mg/ml in drinking water), in the series on Friend-Leukämie-Virus [2] (0.10 mg/ml in drinking water) and in the series with Friend-Leukämie-Virus [2] (0.50 mg/ml in drinking water) was 10 each time. Also, the Hg in the series on Friend-Leukämie-Virus [1] (10 x 1.0 mg/Maus i.p., haemoglobin content of blood) was 13.2 g/ %; with Friend-Leukämie-Virus [2] (0.50 mg/ml in drinking water), 11.3 g/%.

In the case of `C=CCSc1ncnc2[nH]cnc12` [Präparat 3, 6-(2-propenyl)-mercaptopurin], the “Löslichkeit in Alkohol, heißem Wasser und Polyethylenglykol” value in series [3] was “leicht löslich”. Also, in series [3], the “Löslichkeit in kaltem Wasser” value is given as “Schwer löslich”. In addition, the “rel. Milzgewicht” value with Friend-Leukämie-Virus [1] (10 x 0.1 mg/Maus i.p.) came out at 5.86 ± 1.84 % Körpergewicht; in the series with Friend-Leukämie-Virus [1] (10 x 1.0 mg/Maus i.p.), 1.37 ± 0.38 % Körpergewicht; in the series on Friend-Leukämie-Virus [2] (setting [4]), 4.52 ± 2.28 % Körpergewicht; in the series on Friend-Leukämie-Virus [2] (setting [5]), 1.51 ± 1.26 % Körpergewicht.
